In PubChem BioAssay AID1648 (Sanford-Burnham Center for Chemical Genomics, 2009):
Activity calls are given as the source filed them. How the calls were made is not given here.

target: Serine/threonine-protein kinase mTOR (Homo sapiens) (UniProt P42345); assay: mTOR FRB domain ligand binding – biophysical, NMR (AID 1648); details: NMR binding to FRB domain, chemical shift
Sequence (P42345 2015-2114): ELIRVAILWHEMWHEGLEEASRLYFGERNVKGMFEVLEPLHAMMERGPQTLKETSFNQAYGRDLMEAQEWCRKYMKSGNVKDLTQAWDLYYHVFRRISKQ

Compound	Kd
O=[N+]([O-])c1c[n+]([O-])n(-c2ccccc2)n1	> 4 mM (inactive)
CN1CCN(CC(=O)NC2CCCCC2)CC1	> 4 mM (inactive)
C[C@H]1[C@H]2CCC3C4CC=C5C[C@@H](N(C)C)CC[C@]5(C)C4CC[C@@]32CN1C (stereo partly specified)	> 4 mM (inactive)

Second part, the compound after the results:

Kd	Compound
> 4 mM (inactive)	O=C(O)Cn1nnn(-c2ccccc2)c1=S
> 4 mM (inactive)	CN(C)c1nc(N)nc(-c2nc3ccccc3s2)n1
> 4 mM (inactive)	Cc1c(C(=O)Nn2cnnc2)oc2ccccc12
